Laboratory results reported in patent publication US7645882B2, “Inhibitor of protein modification products formation” (priority 2003, dated 2010).

What was measured:
SHR/NDmcr-cp rat = assay: Renal protecting effect in SHR/NDmcr-cp rat; type: in vivo; settings: 33 weeks aged, 20 weeks administration; TM-2002 50 mg/kg in diet, olmesartane 3 mg/kg oral
From the text: Renal protecting effect was observed using SHR/NDmcr-cp (Disease Model Cooperative Research Association) rat, which had been known their high blood pressure, hyperglycemia, hyperlipemia, obesity and hyperinsulinemia and renal function disorder while aging.
SHR/NDmcr-cp rat and Wistar Kyoto rat (Disease Model Cooperative Research Association) of 9 weeks aged were conformed for 3 weeks and measured their body weight and blood collection before administration. One group contain five rats (body weight 440 g±32 g). After division, excipient (negative control), positive control compound and test compound were administered 20 weeks. Carboxymethylcellulose (carboxymethyl cellulose Na/ Wako) solution as excipient and olmesartane, which is one of the angiotensin II receptor antagonist and has renal protective effect, as positive control compound were used to examine the effect of TM-2002 (test compound). The dosage of olmesartane was 3 mg per 1 kg of body weight and that of TM-2002 was 50 mg per 1 kg of body weight. Olmesartane was prepared by suspending or solving the designed amount in 1.0 ml of 0.5% carboxymethylcellulose solution or purified water, and TM-2002 was prepared by mixing the designed amount in 30 g of diet (for one day). Since the increase of body weight of test animals was remarkable, the amount of positive control compound and test compound was modified depending on the result of body weight measuring (every week). […] While administration period, body weight was measured every week, and blood collection, urine collection and blood pressure measuring were done every 2 weeks before 4 weeks aged and every 4 weeks after 5 weeks aged. Blood collection was carried out after warming to 38° C. by warming plate from caudal vein for 800 μl (heparin treatment: the amount of heparin was determined by ratio 15 μl to 1 ml of blood). […] The volume of daily urine was measured when urine was collected. The blood pressure was determined with by the tail-cuff method blood pressure measure (Softron). […]

pentosidine [1] = assay: Pentosidine production inhibiting effect with BSA and arabinose; type: biochemical; settings: BSA and arabinose instead of plasma
In short: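 Heparinized hemodialysis-patient plasma (replaced here by BSA plus arabinose) incubated with compound at 0.8, 2.0, 5.0 mM final, 37 °C, one week. Protein TCA-precipitated, hydrolysed in 6N HCl at 110 °C for 16 h; free pentosidine quantified by reversed-phase HPLC with fluorescence (ex/em 335/385 nm) against synthetic standard.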

pentosidine [2] = assay: Pentosidine formation inhibiting effect in plasma of hemodialysis patients; type: biochemical, human; settings: plasma from hemodialysis patients, final concentration 0.8, 2.0, 5.0 mM, 37° C. for one week; compared to pyridoxamine as positive control
Protocol: Fresh heparinized plasma samples were obtained after informed consent from hemodialysis patients prior to the dialysis session, and filtrated and sterilized. To the plasma (450 μL), there was added the solution of TM-2002 in dimethylsurphoxide (50 μL) (final concentration: 0.8, 2.0, 5.0 mM) incubated at 37° C. for one week. Then, the amount of pentosidine was measured.
Measurement of the amount of pentosidine was made as follows: to each incubated sample (50 μL) was added an equal volume of 10% trichloroacetic acid, followed by centrifugation at 5000 g for 5 minutes; after removal of the supernatant, the pellet was washed by 5% trichloroacetic acid (300 μL); the pellet was dried under reduced pressure and then subjected to hydrolysis in 6N HCl solution (100 μL) at 110° C. under nitrogen atmosphere for 16 hours; to the hydrolysate, 5N NaOH (100 μL) and 0.5 M phosphate buffer (pH 7.4) (200 μL) were added, followed by filtration through a porefilter with a pore size of 0.5 μm and dilution with PBS. The concentration of free pentosidine was determined by reversed-phase HPLC using a fluorescence detector (Miyata, T. et al.: Proc. Natl. Acad. Sci. USA, Vol. 93, p. 2353-2358, 1996). The effluent was monitored at 335/385 nm of excitation/emission wavelength. Synthetic pentosidine was used as the standard. The detection limit of pentosidine was 0.1 pmol/mg protein. […]

[3] = Solubility test at different pH; type: physicochemical; settings: for condition of the solution: 10 mg per 1 ml purified water
Protocol: TM-2002 was added in purified water to be 10 mg per 1 ml and added hydrochloride to adjust to pH 2.0 and solved. Then, this solution was adjusted to pH 7.0, 8.0 and 2,0 (unadjust) by 1N sodium hydrate to prepare 3 solutions. These solutions were put on warming, dark cold place and after 24 hours, conditions of the solutions were observed. […] As the result, stable TM-2002 injectable formulation in its solubility may be prepared by keeping acidic condition using inorganic acid such as hydrochloride, sulfuric acid, or various organic acid, or by using TM-2002 hydrochloride or sulfate as material which is made from said acids.

With `Cc1ncc2c(c1O)C(c1c(C)nn(-c3ccccc3)c1O)OC2` (stereo not drawn) [compound 68, 1-(5-hydroxy-3-methyl-1-phenyl-1H-pyrazol-4-yl)-6-methyl-1,3-dihydro-furo[3,4-c]pyridin-7-ol] as the molecule, how does the blood pressure (SHR/NDmcr-cp rat) read?
The blood pressure was “without blood pressure lowering”.

What about the “renal function / renal protective effect” value (SHR/NDmcr-cp rat) of the same molecule?
Its value is “excellent renal protective effect”.

And the urinary protein (SHR/NDmcr-cp rat)?
The urinary protein was “urinary protein is suppressed remarkably”.

What about the “Pentosidine production rate in 5 mM of medicament (%)” value (pentosidine [1]) of the same molecule?
Its value is 2.82%.

And the “pentosidine formation inhibiting effect” value (pentosidine [2])?
The value was “inhibits significantly pentosidine formation compared to pyridoxamine”.

And the “condition of the solution” value ([3]; pH 2.0, after 24 hours)?
Its value is “kept clear solution”.

And the “condition of the solution” value ([3]; pH 7.0, after 24 hours)?
The value was “observed precipitate”.

And the “condition of the solution” value ([3]; pH 8.0, after 24 hours)?
The value was “observed precipitate”.

And the “change of color of the solution” value ([3]; pH 7.0 and pH 8.0 solutions, after 24 hours)?
The value was “the change of color was shown”.
